Data as given in patent US20200405687A1, “METHODS FOR THE TREATMENT OF INFECTION” (Corbus Pharmaceuticals, Inc., priority 2016, published 2020).

Experiments:
Pseudomonas aeruginosa = Pseudomonas aeruginosa agarose bead lung infection in Cftr KO and WT mice (Example 2); assay type: in vivo
Method: A limited number of both WT (C57BL/6J, n=5) and Cftr KO (congenic-homologous, DelF508-FABP gut corrected animals, n=5) were evaluated for safety, toxicity, and efficacy upon oral dosing of 5 mg/kg ajulemic acid BID. As controls, PA infected WT C57BL/6J and Cftr KO mice were given the 2% methylcellulose vehicle. Cftr KO and WT animals in this study were followed daily for clinical score and weights for 10 days. At Day 10, animals were euthanized and evaluated for bacteria load (colony forming units, cfus), total bronchoalveolar lavage (BAL) white blood cell counts (WBCs), and differential cell counts.
Mice were inoculated with Pseudomonas aeruginosa (PA) agaroses beads in the lungs and then treated twice daily with oral doses of ajulemic acid at 1 mg/kg and 5 mg/kg. Ajulemic acid was then administered by gavage at 1 mg/kg or 5 mg/kg dose BID in 2% methylcellulose for 10 days starting 24 hours after establishing chronic Pseudomonas aeruginosa (PA) infection. The study included 4 groups:
1) C57BL/6J+vehicle (WT DIL, n=5),
2) C57BL/6J+5 mg/kg ajulemic acid BID (WT AJ, n=5),
3) Cftr KO+vehicle (CF DIL, n=5), and
4) Cftr KO+5 mg/kg ajulemic acid BID (CF AJ, n=5),
and all animals were chronically infected with Pseudomonas aeruginosa using a standard agarose bead model.

[1] = Phase 2 study in subjects having cystic fibrosis, acute pulmonary exacerbations and safety (Example 4); assay type: in vivo, human
Method: An international, multi-center, double-blinded, randomized, placebo-controlled Phase 2 study was performed in subjects having cystic fibrosis. The primary objective of the study was to test safety and tolerability of ajulemic acid in adults with cystic fibrosis who had forced expiratory volume in 1 second (FEV1) percent predicted at least 40% predicted, without regard to their CFTR mutation, infecting pathogen, or baseline treatment. Events of special interest included acute exacerbations requiring intravenous antibiotic treatment or treatment with new antibiotics.
Eighty-five subjects on stable standard-of-care medications were dosed with ajulemic acid at 21 cystic fibrosis centers in the U.S. and Europe and treated with ajulemic acid daily for a period of 84 days, with a follow-up period of 28 days. During the first part of the study (weeks 1-4) subjects were randomized to the following treatment groups: placebo (n=35), 1 mg/day ajulemic acid (n=26) or 5 mg/day ajulemic acid (n=24). During the second part of the study (weeks 5-13), subjects given ajulemic acid in the first part of the study were re-randomized to ajulemic acid 20 mg once per day (n=31) or ajulemic acid 20 mg twice a day (n=30) with 11 subjects from the placebo group also being randomized to the ajulemic acid arms. The last part of the study was a 28 day follow up period post treatment.

[2] = 1 mg/day, 5 mg/day, or 20 mg/day, respective treatment periods
[3] = across doses, compared to placebo

CCCCCCC(C)(C)c1cc(O)c2c(c1)OC(C)(C)[C@@H]1CC=C(C(=O)O)C[C@@H]21 [ajulemic acid, (6aR,10aR)-1-hydroxy-6,6-dimethyl-3-(2-methyl-2-octanyl)-6a,7,10,10a-tetrahydro-6H-benzo[c]chromene-9-carboxylic acid]
Survival Rate (Day 10) (Pseudomonas aeruginosa; Cftr KO (CF) mice, 5 mg/kg BID oral, n=5, vehicle 3/5, 5 mg/kg): 5/5
BAL WBC counts (Pseudomonas aeruginosa; Cftr KO mice, 5 mg/kg BID): decreased BAL WBC counts
number of alveolar macrophages (Pseudomonas aeruginosa; Cftr KO mice, 5 mg/kg BID): increase the number of alveolar macrophages
weight loss (Pseudomonas aeruginosa; Cftr KO mice, 5 mg/kg BID, P<0.01): decreased weight loss
numbers of neutrophils (Pseudomonas aeruginosa; Cftr KO mice, 5 mg/kg BID, P<0.05): decreased numbers of neutrophils
ability to resolve pulmonary infection as assessed by lung CFUs (Pseudomonas aeruginosa; Cftr KO mice, 5 mg/kg BID, Pvariance=0.002): improved the ability of the animals to resolve pulmonary infection
Acute pulmonary exacerbations requiring a new antibiotic, Subjects ([1]; 1 mg, N = 22, Weeks 1-4, placebo 6 (25.0)): 3 (13.6) n/N at risk (%)
Acute pulmonary exacerbations requiring intravenous antibiotics, Subjects ([1]; 1 mg, Weeks 1-4, placebo 3 (8.6)): 1 (3.8) n (% at risk)
acute pulmonary exacerbations requiring any new antibiotic [1, 2]: Reductions were also observed
acute pulmonary exacerbations requiring intravenous antibiotics [1, 2]: Reductions were also observed
Acute pulmonary exacerbations requiring a new antibiotic, Subjects ([1]; 5 mg, N = 23, Weeks 1-4, placebo 6 (25.0)): 3 (13.0) n/N at risk (%)
Acute pulmonary exacerbations requiring intravenous antibiotics, Subjects ([1]; 5 mg, Weeks 1-4, placebo 3 (8.6)): 1 (4.2) n (% at risk)
Acute pulmonary exacerbations requiring a new antibiotic, Subjects ([1]; 20 mg BID, N = 22, Post-treatment, placebo 2 (22.2)): 2 (9.1) n/N at risk (%)
Acute pulmonary exacerbations requiring a new antibiotic, Subjects ([1]; 20 mg BID, N = 24, Weeks 5-12, placebo 9 (50.0)): 2 (8.3) n/N at risk (%)
Acute pulmonary exacerbations requiring intravenous antibiotics, Subjects ([1]; 20 mg BID, Weeks 5-12, placebo 3 (16.7)): 1 (3.3) n (% at risk)
reduction in the 48 week rate of acute pulmonary exacerbations requiring any new antibiotic ([1]; 20 mg BID, compared to placebo): 82%
reduction in the 48 week rate of acute pulmonary exacerbations requiring intravenous antibiotics ([1]; 20 mg BID, compared to placebo): 75%
Acute pulmonary exacerbations requiring a new antibiotic, Subjects ([1]; 20 mg, N = 20, Post-treatment, placebo 2 (22.2)): 6 (30.0) n/N at risk (%)
Acute pulmonary exacerbations requiring a new antibiotic, Subjects ([1]; 20 mg, N = 25, Weeks 5-12, placebo 9 (50.0)): 4 (16.0) n/N at risk (%)
Acute pulmonary exacerbations requiring intravenous antibiotics, Subjects ([1]; 20 mg, Weeks 5-12, placebo 3 (16.7)): 3 (6.5) n (% at risk)
subjects withdrawn due to adverse events ([1]; 85 subjects dosed, 2 on placebo): 3 subjects
occurrence of acute pulmonary exacerbations requiring treatment with any new antibiotic [1, 3]: dose-dependent decrease
occurrence of acute pulmonary exacerbations requiring treatment with intravenous antibiotics [1, 3]: dose-dependent decrease
related serious or severe treatment emergent adverse events ([1]; adults with cystic fibrosis, 1-20 mg BID, 84 days): No related serious or severe treatment emergent adverse events
